Measurements reported in patent publication US20230321043A1, “COMPOUNDS HAVING PSEUDOMONAS ANTI-BIOFILM PROPERTIES” (Københavns Universitet, priority 2020, published 2023).

Columns and labels:
[1] = tested on: P. aeruginosa ΔbifAΔwspFΔpelΔpsl/pCdrA-gfp; assay: c-di-GMP monitor read-out in bifA knockout; type: cell-based, Pseudomonas aeruginosa; conditions: 100 μM, 18 hours of cultivation, FIG. 6B right
Procedure: This experiment was done using a 96 well microtiter format where 20 hour old cultures of the P. aeruginosa ΔwspFΔpelΔpsl/pCdrA-gfp c-di-GMP monitor strain and the P. aeruginosa ΔbifAΔwspFΔpelΔpsl/pCdrA-gfp c-di-GMP monitor strain were diluted 100 fold into 100 μL ABTrace media aliquots supplemented with 0.2% glucose, 0.5% casamino acids, 1 μM FeCl3, 60 μg/mL of gentamicin, 1% DMSO and either 100 μM or 0 μM of H6-335-P1. The resulting microtitter was incubated at 37° C. and 440 RPM in a Tecan reader, and corresponding values of GFP fluorescence (FU) and cell density (OD600) was measured every 20 minutes for 24 hours.

wt P. aeruginosa biofilm = assay: biofilm inhibition, microtiter tray, crystal violet staining; type: cell-based, Pseudomonas aeruginosa; conditions: 8 hours
Procedure: Briefly, using a microtiter tray format, a 20 hour old culture of wt P. aeruginosa was diluted 1000 fold into 100 μL ABtrace media aliquots supplemented with 0.2% glucose, 0.5% Cas amino acids, 1 μM FeCl3, 0.2% DMSO and varying concentrations (100 μM, 50 μM, 25 μM, 12μM, 6 μM or 0 μM) of either H6-335-P1, H6-335, H6-335-SAR compound 26 or H6-335-SAR compound 25. The resulting microtiter trays were sealed with an air permeable lid, and biofilm cultures were grown on a rotary shaker at 37° C. and 160 RPM for 8 hours. After this, culture-supernatants were discarded and the remaining biomass was stained with crystal violet (Groizeleau et al., 2016). Finally, the amount of Crystal violet bound to the biofilm present in each well was plotted as a function of H6-335-P1, H6-335, H6-335-SAR compound 26 and H6-335-SAR compound 25 in the following concentrations: 100 μM, 50 μM, 25 μM, 12 μM, 6 μM or 0 μM (FIG. 4A). Means and standard deviations (bars) in FIG. 4A represents 4 biological replicates (n=4).

[2] = tested on: PA01(wspF)::araC-PBAD-bifA+; assay: biofilm formation with arabinose inducible bifA expression; type: cell-based, Pseudomonas aeruginosa; conditions: 6 to 100 μM with 0.05% or 0.2% arabinose, 18 hours, FIG. 6C
Procedure: Using a 96 well microtiter platform, overnight cultures of the strains were diluted 200 fold into 100 uL ABTrace media aliquots (Pamp and Tolker-Nielsen, 2007) supplemented with 0.2% glucose, 0.5% casa amino acids, 1 μM FeCl3, 1% DMSO and varying concentrations of arabinose and H6-335-P1.
The resulting microtiter plates were sealed with air permeable lids and biofilm cultures were grown at 37° C. on a rotary shaker (280 RPM) for 18 hours, after which the culture supernatants were discarded and biofilm present in the wells were quantified by crystal violet staining (Groizeleau et al., 2016).
Finally, biofilm prevailing following treatment with varying concentrations of arabinose and H6-335-P1 were plotted. The amounts of supplemented arabinose (0% A, 0.05% A or 0.2% A) and H6-335-P1 (100 μM, 50 μM, 25 μM, 12 μM, 6 μM or 0 μM) are indicated below the X-axis of FIG. 6C. Numbers above the bars in FIG. 6 represents the crystal violet measurements.

[3] = solubility in aqueous media; conditions: aqueous media
Pseudomonas flourescens = assay: biofilm formation, crystal violet, host range; type: cell-based; conditions: 100 μM, 8 hours, FIG. 11
Procedure: (§1) To determine the host range of H6-335-P1, the inventors conducted a Blast search for analogs of the P. aeruginosa BifA phosphodiesterase protein encoded by gene PA4367 (bifA).
(§2) Briefly, the experiment presented in FIG. 11 were carried out in 96 well microtiter plates as follows. 20 hours old cultures of either P. aeruginosa, P. putida or P. flourescens were diluted 1000 fold into 100 μL aliquots of ABtrace media supplemented with 0.5% Cas amino acids, 0.2% glucose, 1 μM FeCl3, 0.2% DMSO and either 100 μM H6-335-P1 or none H6-335-P1. The resulting microtiter plate were sealed with an air permeable lid and the cultures were incubated at 37° C. on rotary shaker at 160 RPM. Following 8 hours of growth the culture supernatants were discarded and the amount of biofilm present in each well were quantified by the use of crystal violet staining. Finally, the obtained values of crystal violet (biofilm material) were plotted as a function of strain and the presence of 100 μM H6-335-P1 or absence of H6-335-P1. In FIG. 11 means and standard deviations (bars) represents 4 biological replicates (n=4).

Pseudomonas putida = assay: biofilm formation, crystal violet, host range; type: cell-based; conditions: 100 μM, 8 hours, FIG. 11
Procedure: as §1, §2

[4] = tested on: P. aeruginosa (PA01) tagged with GFP biofilm; assay: flow-chamber biofilm, confocal laser scanning microscopy; type: cell-based, Pseudomonas aeruginosa
Procedure: Biofilms were grown at 37° C. in continuous-culture, once-through, three-channel, flow-chambers (individual channel dimensions of 1×4×40 mm) perfused with sterile AB trace minimal medium (Pamp and Tolker-Nielsen, 2007), supplemented with 0.3 mM glucose and 0.025% (v/v) DMSO. P. aeruginosa (PA01) tagged with GFP at a neutral chromosomal locus was used for the experiments. After a static attachment phase of 1 h, the flow of medium was turned on and the biofilms were allowed to establish for 48 h in the absence (untreated) or presence (treated) of medium supplemented with 25 μM of H6-335-P1. Confocal laser scanning microscopy was used to image the biofilms after 24 h and 48 h (FIG. 5A).
Confocal laser scanning microscopy was used to image the biofilm immediately before H6-335-P1 was added, and after 4 h of H6-335-P1 treatment. Simulated fluorescence projections in 3D were generated from the image stacks using the IMARIS software package (Bitplane, Oxford Imaging, UK) and the resulting images were processed for publication using Photoshop (Adobe, USA).

Enterococcus facieum = assay: biofilm formation / dispersal, host range; type: cell-based; conditions: data not shown
P. aeruginosa biofilms = assay: time dependent antibiotic killing of peg biofilms after H6-335-P1 treatment; type: cell-based, Pseudomonas aeruginosa; conditions: 2 hours 100 μM H6-335-P1, then 30 μg/ml tobramycin or 0.5 μg/ml ciprofloxacin
[5] = tested on: P. aeruginosa wspF mutant; assay: Congo Red agar plate colony phenotype; type: cell-based, Pseudomonas aeruginosa; conditions: CR plates supplemented with 100 μM; dark red without compound
Text: The inventors employed mutational analysis with the aim of identifying a putative target of H6-335-P1. The compound Congo Red (CR) binds to exopolymers whose production is positively regulated by c-di-GMP in P. aeruginosa (Friedman, L., and R. Kolter. 2003.
Genes involved in matrix formation in Pseudomonas aeruginosa PA14 biofilms. Molecular Microbiology 51:675-690).

In the case of `N=C1NN=C(N)/C1=N/Nc1ccccc1F` [H6-335-P1, 4-[(2-fluorophenyl) hydrazinylidene]pyrazole-3,5-diamine], the “fluorescent read-out of ΔbifA c-di-GMP monitor strain” value [1] is reported as “completely unaffected”, the “reduction of biofilm formation” value (wt P. aeruginosa biofilm; 100 μM, compared to untreated (DMSO control)) is reported as 98% and the “biofilm inhibition (dose-response, words)” value (wt P. aeruginosa biofilm; 6 to 100 μM, FIG. 4A) is reported as “distinct concentration dependent biofilm inhibition”. For the same compound, the “inhibition of biofilm formation in arabinose stimulated (bifA induced) cultures” value [2] was “synergistic inhibitory effect on biofilm formation”, the solubility [3] was < 2 µM and the “biofilm formation of Pseudomonas flourescens” value (Pseudomonas flourescens) was “significantly less biofilm”. For the same compound, the “biofilm formation of Pseudomonas putida” value (Pseudomonas putida) was “significantly less biofilm”, the “prevention of biofilm formation in flow-through cells” value ([4]; 25 μM in the growth medium, 48 h, FIG. 5A) was “significantly prevented biofilm formation” and the “biofilm biomass left behind” value ([4]; 25 μM, 48 h old biofilm, after four hours of exposure, FIG. 5B) was 10%. For the same compound, the “biofilm formation of Enterococcus facieum” value (Enterococcus facieum) was “failed to reduce biofilm formation”, the “surviving cells of biofilms after antibiotic challenge” value (P. aeruginosa biofilms) was “substantial decrease of surviving cells” and the “colony colour on Congo Red plates” value [5] was “white colonies”.
